{"source": "patent US11278518B2", "about": "“Methods of treatment using 4-methylumbelliferone and derivatives thereof” (The Board of Trustees of the Leland Stanford Junior …, priority 2017, dated 2022)", "key": {"[1]": {"test_system": "DORmO and NOD mouse models", "conditions": "4-MU treatment; cited from earlier work"}, "[2]": {"test_system": "obese, diabetic mice", "conditions": "4-MU treatment; cited from earlier work"}, "[3]": {"test_system": "DORmO mice", "assay": "Onset of diabetes in DORmO mice", "type": "in vivo", "source_text": "In proof-of-principle studies, 12 candidate esters of 4-MU and 4 candidate esters of 4-MUG were generated and the conversion of these compounds into 4-MU in buffer containing bovin serum was examined. […] Compounds A and B were individually administered to 8 week old DORmO mice. Compound B, butyl-4-MUG, delayed diabetes onset by one month when compared to Compound A. In contrast, mice fed Compound A, ethyl-4-MUG, developed diabetes at 12 weeks of age, at the same time as untreated DORmO mice. […] Briefly, to determine that HA accumulates in the pancreatic islets and creates a permissive environment for autoimmune attacks during autoimmune diabetes disease progression, the DORmO double transgenic mouse model of autoimmune diabetes was used. DORmO mice predictably develop autoimmune diabetes because they are bred to have both a target antigen on their insulin producing beta-cells as well as an immune system that specifically recognizes that antigen. DORmO mice are the result of a cross between RIPmOVA mice (a strain that carries a gene specific for hen egg ovalbumin (OVA) that is only expressed on beta-cells, emulating the auto-antigen) and DO11.10 mice (a strain that carries a T-cell receptor transgene specific for OVA, emulating auto-reactive CD4+ T cells). DORmO mice spontaneously develop autoimmune insulitis starting at four weeks of age and all animals become diabetic (hyperglycemia >200 mg/dl) by 20 weeks of age (Wesley, J. D., et al., J. Immunol. 185, 4760-4768 (2010). Beginning at four weeks of age, mice were weighed weekly as well as bled via the tail vein for the determination of their blood glucose level using a Contour blood glucose meter and blood glucose monitoring strips (Bayer Healthcare). When two consecutive blood glucose readings of 250 mg/dL were recorded, animals were considered diabetic. When two consecutive blood glucose readings of 300 mg/dL were recorded, animals were euthanized. For the in vivo part the oral delivery in the drinking water was the same as for 4-MUG. […]"}, "[4]": {"test_system": "acute lung injury", "conditions": "4-MU treatment; cited from earlier work"}, "[5]": {"test_system": "collagen-induced arthritis model", "conditions": "4-MU treatment; cited from earlier work"}, "[6]": {"test_system": "Biliary Duct Ligation (BDL) model", "conditions": "4-MU; cited from earlier work"}, "[7]": {"test_system": "EAE", "conditions": "4-MU treatment; cited from earlier work"}, "[8]": {"test_system": "ApoE-deficient mice", "conditions": "4-MU treatment, high-fat diet; cited from earlier work"}, "[9]": {"conditions": "in vivo, cited from earlier work"}, "[10]": {"assay": "Serum drug concentration in mice by HPLC-MS", "type": "in vivo", "conditions": "4-MUG in drinking water at 5%, 0.325 mg/mouse/day", "method": "The 4-MU (Alfa Aesar) was pressed into the mouse chow by TestDiet® and irradiated before shipment. This chow formulation delivered 250 mg/mouse/day, yielding a serum drug concentration of 640.3±17.2 nmol/L in mice, as measured by HPLC-MS. 4-MUG ([…]) was distributed in the drinking water of the mice at a 5% concentration which should deliver 0.325 mg/mouse/day, yielding a serum drug concentration of 357.1±72.6 ng/mL in mice, as measured by HPLC-MS. Mice were initiated on 4-MU and 4-MUG at five, eight or twelve weeks of age, unless otherwise noted, and were maintained on this diet until they were euthanized, unless otherwise noted. For analysis of Foxp3+ regulatory T cell numbers in naïve mice, mice were treated daily with 0.5 mg of 4-MU or 1.0 mg 4-MUG in 200 μl 0.08% carboxymethylcellulose in saline by intraperitoneal (i.p.) injection."}, "[11]": {"test_system": "HA synthesis", "assay": "Hyaluronan (HA) ELISA of B16F10 cell cultures, inhibition of HA synthesis", "type": "cell-based, murine", "conditions": "cells cultured 24-72 hours, HA in ELISA-like assay, normalized", "method": "B16F10 is a murine melanoma cell line. […] The cells were cultured at 37° C. temperature and an atmosphere of 95% air and 5% carbon dioxide. Cells were cultured in DMEM plus 10% FBS. For the 4-MUG ester experiments, cells were seeded in 48-well plates, at a density of 10,000 cells per well and cultured for 24-72 hours. 4-MU, 4-MUG and the 4-MUG esters were diluted 1:1000 from their stock concentration and added to the cell medium in their final μM concentrations. For the analysis, the cells and the cell supernatant were collected at the end of each experiment and stored at −20° C. until further use. 48-well plates from previous experiments were thawed and 200 μL cell lysis buffer was added to each well. Cells were incubated for 15 minutes at room temperature. The whole lysate was transferred into a 96-well v-bottom plate and centrifuged at 3500 g for 20 minutes at 4° C. After spinning 25 μL from each well was transferred into a flat-bottom 96-well plate and stored until further use. Cell lysis buffer contains Tris-HCl, EDTA, SDS, MgCl2 and Super Nucleasis®. Protein measurement was performed by using the Pierce BCA Protein Assay Kit® (Thermo Scientific) according to the manufacturer instructions. The BCA Protein assay is based on bicinchoninic acid (BCA) for the colorimetric detection and quantitation of total protein. This method combines a biuret reaction (reduction of Cu2+ to Cu1+ by protein in an alkaline medium) with a highly and selective colorimetric detection of the cuprous cation (Cu1+) with the help of bicinchoninic acid. A purple-colored reaction product is formed by the chelation of two BCA molecules with one cuprous ion. This complex has a strong absorbance at 562 nm. The identification of HA in the samples is achieved by utilizing a highly specific HA binding protein (HABP) probe that interacts with HA. […] The HA concentration in the tissue is determined by using an ELISA-like assay. […] The plate was read at 405 nm and the concentrations were calculated according to the standards."}, "[12]": {"test_system": "FoxP3+ regulatory T-cells", "assay": "Induction of FoxP3+ regulatory T-cells in vivo", "conditions": "mice", "method": "The 4-MU (Alfa Aesar) was pressed into the mouse chow by TestDiet® and irradiated before shipment. This chow formulation delivered 250 mg/mouse/day, yielding a serum drug concentration of 640.3±17.2 nmol/L in mice, as measured by HPLC-MS. 4-MUG (ChemImpex) was distributed in the drinking water of the mice at a 5% concentration which should deliver 0.325 mg/mouse/day, yielding a serum drug concentration of 357.1±72.6 ng/mL in mice, as measured by HPLC-MS. Mice were initiated on 4-MU and 4-MUG at five, eight or twelve weeks of age, unless otherwise noted, and were maintained on this diet until they were euthanized, unless otherwise noted. For analysis of Foxp3+ regulatory T cell numbers in naïve mice, mice were treated daily with 0.5 mg of 4-MU or 1.0 mg 4-MUG in 200 μl 0.08% carboxymethylcellulose in saline by intraperitoneal (i.p.) injection."}, "[13]": {"conditions": "after 6 months of treatment; cited from earlier work"}}, "note": "Entries after “also recorded” stand apart in the source; their conditions may differ."}
{"compound": "Cc1cc(=O)oc2cc(O)ccc12", "note": "[Compound 4-MU, 4-methylumbelliferone]", "values": [{"measurement": "progression of autoimmune diabetes", "setting": "[1]", "value": "limit the progression"}, {"measurement": "glycemia", "setting": "[2]", "value": "restores normoglycemia"}, {"measurement": "protection from diabetes", "setting": "[3]; 0.65% 4-MU (approximately 10x less)", "value": "only partially protective"}, {"measurement": "lung injury", "setting": "[4]", "value": "decreased or prevented lung injury"}, {"measurement": "disease scores", "setting": "[5]", "value": "improved disease scores"}, {"measurement": "fibrosis", "setting": "[6]", "value": "reduce fibrosis"}, {"measurement": "EAE disease", "setting": "[7]", "value": "prevent and treat disease; also recorded: limit the progression"}, {"measurement": "atherosclerosis", "setting": "[8]", "value": "worse atherosclerosis"}, {"measurement": "bioavailability", "setting": "[9]; first-pass glucuronidation", "value": "2-3%"}, {"measurement": "extraction by the liver", "setting": "[9]", "value": "≤ 97", "unit": "%"}]}
{"compound": "Cc1cc(=O)oc2cc(O[C@@H]3O[C@H](C(=O)O)[C@@H](O)[C@H](O)[C@H]3O)ccc12", "note": "[Compound 4-MUG, 4-methylumbelliferone glucuronide]", "values": [{"measurement": "serum drug concentration", "setting": "[10]", "value": "357.1 ± 72.6", "unit": "ng/mL"}, {"measurement": "inhibition of HA synthesis", "setting": "[11]", "value": "inhibits HA synthesis by human cell lines as well as 4-MU; also recorded: inhibits HA synthesis as effectively as 4-MU"}, {"measurement": "fraction of Foxp3+ regulatory T-cells (induction)", "setting": "[12]", "value": "also has this property in vivo; also recorded: does increase; also recorded: increases"}, {"measurement": "numbers of CD3+ T-cells", "setting": "[12]", "value": "does not increase"}, {"measurement": "numbers of CD4+ T-cells", "setting": "[12]", "value": "does not increase"}, {"measurement": "numbers of CD25+ T-cells", "setting": "[12]", "value": "does not increase"}]}
{"compound": "CCOC(=O)C1O[C@@H](Oc2ccc3c(C)cc(=O)oc3c2)C(O)[C@H](O)[C@@H]1O", "note": "(stereo partly drawn) [Compound A, 4-methylumbelliferyl β-D-glucuronide ethyl ester]", "values": [{"measurement": "age at which mice developed diabetes", "setting": "[3]; 8 week old DORmO mice, 0.05% in drinking water", "value": 12, "unit": "weeks"}, {"measurement": "inhibition of HA synthesis", "setting": "[11]", "value": "best inhibited HA synthesis in vitro"}]}
{"compound": "CCCCOC(=O)C1O[C@@H](Oc2ccc3c(C)cc(=O)oc3c2)C(O)[C@H](O)[C@@H]1O", "note": "(stereo partly drawn) [Compound B]", "values": [{"measurement": "onset of diabetes", "setting": "[3]; at 1/100th the dose of 4-MU", "value": "delays the onset of diabetes"}, {"measurement": "inhibition of HA synthesis", "setting": "[11]", "value": "best inhibited HA synthesis in vitro"}]}
{"compound": "C[C@H](CCC(=O)O)[C@H]1CC[C@H]2[C@@H]3[C@@H](O)C[C@@H]4C[C@H](O)CC[C@]4(C)[C@H]3CC[C@]12C", "note": "[UDCA, ursodeoxycholic acid]", "values": [{"measurement": "bile concentration of UDCA", "setting": "[13]", "value": "up to 70%"}]}
